From patent US6570068B1, “Methods for maize transformation coupled with adventitious regeneration utilizing nodal section explants and mature zygotic embryos” (Mississippi State University, priority 1997, dated 2003)

Assays:
nodal ridge explants = test: Multiple shoot clump formation from nodal ridge explants of seedlings germinated with BA; format: cell-based, corn; settings: 2.0 mg/l BA in germination medium, 4 weeks on shoot initiation medium
Experimental: (§1) In this experiment, the standard germination medium contained 4.3 g/l MS basal salts, DM-Vitamins (1.0 mg/l thiamine-HCl, 0.5 mg/l pyridoxine-HCl, 0.5 mg/l nicotinic acid, 100 mg/l myo-inositol), 30 g/l sucrose, (pH 5.8), and 2.0 mg/l benzyladenine (BA). The standard shoot initiation medium contained 4.3 g/l MS basal salts, DM-vitamins (1.0 mg/l thiamine-HCl, 0.5 mg/l pyridoxine-HCl, 0.5 mg/l nicotinic acid, 100 mg/l myo-inositol), 30 g/l sucrose, 8.0 g/l Phytagar, 0.25 mg/l 4-CPA (para-chlorophenoxyacetic acid), 10 mg/l glycine, 150 mg/l asparagine, and 2.0 mg/l BA. The standard root initiation medium contained 4.3 g/l MS basal salts, DM-vitamins (1.0 mg/l thiamine-HCl, 0.5 mg/l pyridoxine-HCl, 0.5 mg/l nicotinic acid, 100 mg/l myo-inositol), 30 g/l sucrose, 8.0 g/l Phytagar, and ±0.5 mg/l IBA.
As a result, those explants were easier to excise. Explants spanning the seventh node (nodal ridge),with a top excision of 0.5-1.0 mm above the ridge were excised from 4, 7, 14 or 21 day-old seedlings and placed on the shoot initiation medium for 4 weeks. After 4 weeks, 45% of the explants from 7 day-old seedlings (+BA) produced multiple shoot clumps, whereas only 24% of 7 day-old seedlings (−BA) produced multiple shoot clumps. Approximately 3% of the 4 day-old seedlings (+BA) produced multiple shoots. […]

corn seedlings = test: Seedling growth in germination medium with BA; format: in vivo; settings: for seedling height versus seedlings without BA: 2.0 mg/l BA in germination medium
Experimental: as §1
As a result, those explants were easier to excise. Explants spanning the seventh node (nodal ridge),with a top excision of 0.5-1.0 mm above the ridge were excised from 4, 7, 14 or 21 day-old seedlings and placed on the shoot initiation medium for 4 weeks. After 4 weeks, 45% of the explants from 7 day-old seedlings (+BA) produced multiple shoot clumps, whereas only 24% of 7 day-old seedlings (−BA) produced multiple shoot clumps. Approximately 3% of the 4 day-old seedlings (+BA) produced multiple shoots. Most explants from older seedlings (14 or 21 days) produced only one elongated shoot or 1 shoot with multiple branches. Once placed on the standard root initiation medium, most shoots (85%) rooted and the plants produced were acclimatized and placed under greenhouse conditions where normal flowering and fruiting were observed. Only one out of 29 plants produced was abnormal (i.e., a dwarf with twisted leaves). The explants should remain on the shoot initiation medium for 4 weeks. It was discovered that if the explants are left on the shoot initiation medium for 8 weeks, floral structures appeared.

c1ccc(CNc2ncnc3nc[nH]c23)cc1 [BA, benzyladenine]
seedlings (explants) that produced multiple shoots (nodal ridge explants; 4 day-old seedlings): Approximately 3%
explants that produced multiple shoot clumps (nodal ridge explants; explants from 7 day-old seedlings): 45%
seedling height versus seedlings without BA (corn seedlings; 4 day-old seedlings): taller than those without BA
seedling height versus seedlings without BA (corn seedlings; by 7 days): no appreciable differences in height
roots at the nodal ridge (corn seedlings; seedlings grown with BA): less roots at the nodal ridge
